Experimental data published in patent US9988400B2 (Genentech, Inc., priority 2013, dated 2018).

Molecular target: T1, HEK cells stably transfected with tetracycline inducible hNR1 and hNR2A (Homo sapiens, UniProt Q05586+Q12879)
T1 construct: expressed in transfected cells; host or cells: HEK cells, stably transfected, tetracycline/doxycycline inducible
Experiment: Assay 1: Cell-Based Assay, cytosolic calcium response to positive allosteric modulators (with 30 μM glycine and 300 nM L-glutamate, EC30)
Conditions: Table 2; for Max %: responses scaled relative to 100 μM L-glutamate maximal response (100%) and 0 μM L-glutamate (0%); for EC50: cytosolic calcium response, with 30 μM glycine and 300 nM L-glutamate (EC30), — = no plateau was reached
Summary of the method: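 Cells induced 24 h with 7.5 μg mL^−1 doxycycline plus 500 μM (+)-ketamine, loaded 60 min at 37 °C with calcium dye in Mg-free HBSS (1.8 mM Ca, probenecid, 10 μM (+)-ketamine, pH 7.15). Peak RFU over 5 min after compound addition, scaled to 100 μM L-glutamate (100%) and 0 μM (0%); four-parameter Hill fit for EC50, max % if no plateau.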

T1 sequence (Q12879 23-1464, other chains not shown): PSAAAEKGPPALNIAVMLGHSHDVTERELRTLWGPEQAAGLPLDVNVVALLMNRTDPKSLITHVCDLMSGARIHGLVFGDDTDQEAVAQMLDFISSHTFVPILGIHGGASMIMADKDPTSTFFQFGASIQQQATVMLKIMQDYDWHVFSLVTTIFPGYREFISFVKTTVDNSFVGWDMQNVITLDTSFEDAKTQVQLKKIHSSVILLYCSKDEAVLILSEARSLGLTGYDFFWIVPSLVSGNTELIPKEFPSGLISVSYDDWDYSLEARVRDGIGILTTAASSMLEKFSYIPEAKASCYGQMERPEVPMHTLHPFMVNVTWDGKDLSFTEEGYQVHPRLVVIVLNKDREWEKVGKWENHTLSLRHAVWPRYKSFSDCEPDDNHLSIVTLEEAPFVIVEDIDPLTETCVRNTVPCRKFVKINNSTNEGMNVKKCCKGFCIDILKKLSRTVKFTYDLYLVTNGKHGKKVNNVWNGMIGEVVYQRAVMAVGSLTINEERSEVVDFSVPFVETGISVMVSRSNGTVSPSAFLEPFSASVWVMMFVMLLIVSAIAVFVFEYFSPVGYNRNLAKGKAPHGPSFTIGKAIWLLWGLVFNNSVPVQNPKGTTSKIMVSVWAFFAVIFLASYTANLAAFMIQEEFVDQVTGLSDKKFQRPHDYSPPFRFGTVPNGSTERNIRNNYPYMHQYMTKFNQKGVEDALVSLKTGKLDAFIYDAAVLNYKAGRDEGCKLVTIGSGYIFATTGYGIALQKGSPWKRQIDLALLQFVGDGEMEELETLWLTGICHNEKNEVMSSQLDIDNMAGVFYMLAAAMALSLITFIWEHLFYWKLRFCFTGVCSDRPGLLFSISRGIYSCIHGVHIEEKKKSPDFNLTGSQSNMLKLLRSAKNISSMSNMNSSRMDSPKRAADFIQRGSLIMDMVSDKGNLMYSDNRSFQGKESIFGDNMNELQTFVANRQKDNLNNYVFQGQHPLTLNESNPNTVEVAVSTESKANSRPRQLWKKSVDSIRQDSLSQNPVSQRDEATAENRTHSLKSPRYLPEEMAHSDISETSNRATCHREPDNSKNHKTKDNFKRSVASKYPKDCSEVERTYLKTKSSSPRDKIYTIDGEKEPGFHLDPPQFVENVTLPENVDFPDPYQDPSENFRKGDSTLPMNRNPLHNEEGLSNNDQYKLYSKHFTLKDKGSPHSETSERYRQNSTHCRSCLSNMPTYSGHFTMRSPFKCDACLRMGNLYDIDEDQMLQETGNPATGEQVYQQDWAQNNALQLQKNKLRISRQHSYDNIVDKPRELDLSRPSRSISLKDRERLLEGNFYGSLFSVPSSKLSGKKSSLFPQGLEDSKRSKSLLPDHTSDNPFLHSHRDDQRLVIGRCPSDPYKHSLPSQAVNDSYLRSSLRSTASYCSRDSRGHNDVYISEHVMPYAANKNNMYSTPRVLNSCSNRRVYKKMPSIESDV

CCNC(=O)c1c(C)sc2nc(Cc3cccc(C(F)(F)F)c3)cc(=O)n12 [Example 21.7, N-ethyl-2-methyl-5-oxo-7-(3-(trifluoromethyl)benzyl)-5H-thiazolo[3,2-a]pyrimidine-3-carboxamide]
Max %: 100%

CCNC(=O)c1c(C)sc2nc(Cc3cccc(C#N)c3)cc(=O)n12 [Example 21.8, 7-(3-cyanobenzyl)-N-ethyl-2-methyl-5-oxo-5H-thiazolo[3,2-a]pyrimidine-3-carboxamide]
Max %: 99.3%

CCNC(=O)c1c(C2CC2)sc2nc(Cc3cccc(C#N)c3F)cc(=O)n12 [Example 21.9, 7-(3-cyano-2-fluorobenzyl)-2-cyclopropyl-N-ethyl-5-oxo-5H-thiazolo[3,2-a]pyrimidine-3-carboxamide]
Max %: 90.1%

CCNC(=O)c1c(C)sc2nc(Cc3cc(F)cc(C#N)c3)cc(=O)n12 [Example 21.10, 7-(3-cyano-5-fluorobenzyl)-N-ethyl-2-methyl-5-oxo-5H-thiazolo[3,2-a]pyrimidine-3-carboxamide]
Max %: 70.3%

CCNC(=O)c1c(C)sc2nc(Cc3cccc(C#N)c3)cc(=O)n12 [Example 21.11, 7-(3-cyanobenzyl)-N-ethyl-2-methyl-5-oxo-5H-thiazolo[3,2-a]pyrimidine-3-carboxamide]
Max %: 47%

CCNC(=O)c1c(C)sc2nc(Cc3cccc(C(F)(F)F)c3F)cc(=O)n12 [Example 21.12, N-ethyl-7-(2-fluoro-3-(trifluoromethyl)benzyl)-2-methyl-5-oxo-5H-thiazolo[3,2-a]pyrimidine-3-carboxamide]
EC50: 6.7 µM

CCNC(=O)c1c(C)sc2nc(Cc3cccc(C#N)c3F)cc(=O)n12 [Example 21.13, 7-(3-cyano-2-fluorobenzyl)-N-ethyl-2-methyl-5-oxo-5H-thiazolo[3,2-a]pyrimidine-3-carboxamide]
EC50: 12.3 µM
Max %: 131%

CNC(=O)c1c(C)sc2nc(Cc3cccc(Cl)c3F)cc(=O)n12 [Example 21.14, 7-[(3-chloro-2-fluoro-phenyl)methyl]-N,2-dimethyl-5-oxo-thiazolo[3,2-a]pyrimidine-3-carboxamide]
EC50: 11 µM
Max %: 112%

CNC(=O)c1c(C)sc2nc(Cc3cccc(C(F)(F)F)c3)cc(=O)n12 [Example 21.15, N,2-dimethyl-5-oxo-7-[[3-(trifluoromethyl)phenyl]methyl]thiazolo[3,2-a]pyrimidine-3-carboxamide]
Max %: 112%

CNC(=O)c1c(C)sc2nc(Cc3cccc(Cl)c3)cc(=O)n12 [Example 21.16, 7-[(3-chlorophenyl)methyl]-N,2-dimethyl-5-oxo-thiazolo[3,2-a]pyrimidine-3-carboxamide]
EC50: 14.3 µM
Max %: 107%

CNC(=O)c1c(C)sc2nc(Cc3cc(C(F)(F)F)ccc3C3CC3)cc(=O)n12 [Example 21.17, 7-[[2-cyclopropyl-5-(trifluoromethyl)phenyl]methyl]-N,2-dimethyl-5-oxo-thiazolo[3,2-a]pyrimidine-3-carboxamide]
EC50: 23.7 µM
Max %: 107%

CCNC(=O)c1c(C)sc2nc(Cc3cccc(C(F)(F)F)n3)cc(=O)n12 [Example 21.18, N-ethyl-2-methyl-5-oxo-7-((6-(trifluoromethyl)pyridine-2-yl)methyl)-5H-thiazolo[3,2-a]pyrimidine-3-carboxamide]
Max %: 58.5%

CCNC(=O)c1c(C)sc2nc(Cc3cc(F)c(F)cc3CC)cc(=O)n12 [Example 21.19, N-ethyl-7-(2-ethyl-4,5-difluorobenzyl)-2-methyl-5-oxo-5H-thiazolo[3,2-a]pyrimidine-3-carboxamide]
EC50: 7.4 µM
Max %: 145%

CCNC(=O)c1c(C)sc2nc(Cc3cccc(C(F)F)c3F)cc(=O)n12 [Example 21.20, 7-[[3-(difluoromethyl)-2-fluoro-phenyl]methyl]-N-ethyl-2-methyl-5-oxo-thiazolo[3,2-a]pyrimidine-3-carboxamide]
EC50: 5.2 µM
Max %: 114%

CCNC(=O)c1c(C)sc2nc(Cc3cc(F)ccc3CC)cc(=O)n12 [Example 21.21]
EC50: 33.6 µM
Max %: 134%

CCNC(=O)c1c(C)sc2nc(Cc3cccc(C#N)n3)cc(=O)n12 [Example 21.22, 7-((6-cyanopyridin-2-yl)methyl)-N-ethyl-2-methyl-5-oxo-5H-thiazolo[3,2-a]pyrimidine-3-carboxamide]
Max %: 60.1%

CNC(=O)c1c(C)sc2nc(Cc3cccc(C(F)F)c3F)cc(=O)n12 [Example 21.23, 7-[[3-(difluoromethyl)-2-fluoro-phenyl]methyl]-N,2-dimethyl-5-oxo-thiazolo[3,2-a]pyrimidine-3-carboxamide]
EC50: 6.5 µM
Max %: 107%

CNC(=O)c1c(C)sc2nc(Cc3cccc(CO)c3F)cc(=O)n12 [Example 21.24, 7-[[2-fluoro-3-(hydroxymethyl)phenyl]methyl]-N,2-dimethyl-5-oxo-thiazolo[3,2-a]pyrimidine-3-carboxamide]
EC50: 34.5 µM
Max %: 102%

CCNC(=O)c1c(C)sc2nc(Cc3cccc(C4CC4)c3F)cc(=O)n12 [Example 21.25, 7-(3-cyclopropyl-2-fluorobenzyl)-N-ethyl-2-methyl-5-oxo-5H-thiazolo[3,2-a]pyrimidine-3-carboxamide]
EC50: 3.9 µM
Max %: 105%

CCNC(=O)c1csc2nc(Cc3cccc(C#N)c3F)c(F)c(=O)n12 [Example 21.26, 7-(3-cyano-2-fluorobenzyl)-N-ethyl-6-fluoro-5-oxo-5H-thiazolo[3,2-a]pyrimidine-3-carboxamide]
Max %: 76.5%

CNC(=O)c1c(C)sc2nc(Cc3cccc(C#N)c3F)c(F)c(=O)n12 [Example 21.27]
EC50: 16 µM
Max %: 122%

CCNC(=O)c1c(C)sc2nc(Cc3cccc(C#N)c3F)c(F)c(=O)n12 [Example 21.28, 7-(3-cyano-2-fluorobenzyl)-N-ethyl-6-fluoro-2-methyl-5-oxo-5H-thiazolo[3,2-a]pyrimidine-3-carboxamide]
EC50: 11.4 µM
Max %: 126%

CNC(=O)c1c(C)sc2nc(Cc3cccc(C(F)(F)F)c3F)c(F)c(=O)n12 [Example 21.29, 6-fluoro-7-(2-fluoro-3-(trifluoromethyl)benzyl)-N,2-dimethyl-5-oxo-5H-thiazolo[3,2-a]pyrimidine-3-carboxamide]
EC50: 4.7 µM
Max %: 98.2%

CCNC(=O)c1c(C)sc2nc(Cc3cc(C#N)ccc3C)cc(=O)n12 [Example 21.30, 7-(5-cyano-2-methylbenzyl)-N-ethyl-2-methyl-5-oxo-5H-thiazolo[3,2-a]pyrimidine-3-carboxamide]
Max %: 100%

CCNC(=O)c1c(C)sc2nc(Cc3cc(C#N)ccc3F)cc(=O)n12 [Example 21.31, 7-(5-cyano-2-fluorobenzyl)-N-ethyl-2-methyl-5-oxo-5H-thiazolo[3,2-a]pyrimidine-3-carboxamide]
Max %: 88.8%

CCNC(=O)c1c(C)sc2nc(Cc3cc(F)ccc3Cl)cc(=O)n12 [Example 21.32, 7-(2-chloro-5-fluorobenzyl)-N-ethyl-2-methyl-5-oxo-5H-thiazolo[3,2-a]pyrimidine-3-carboxamide]
Max %: 84.3%

CCNC(=O)c1csc2nc(Cc3cccc(C#N)c3F)cc(=O)n12 [Example 21.33, 7-(3-cyano-2-fluorobenzyl)-N-ethyl-5-oxo-5H-thiazolo[3,2-a]pyrimidine-3-carboxamide]
Max %: 82.5%

CCNC(=O)c1c(C)sc2nc(Cc3cc(F)ccc3C(F)(F)F)cc(=O)n12 [Example 21.34, N-ethyl-7-(5-fluoro-2-(trifluoromethyl)benzyl)-2-methyl-5-oxo-5H-thiazolo[3,2-a]pyrimidine-3-carboxamide]
Max %: 79.9%

CCNC(=O)c1c(C)sc2nc(Cc3cccc4ccccc34)cc(=O)n12 [Example 21.35, N-ethyl-2-methyl-7-(naphthalen-1-ylmethyl)-5-oxo-5H-thiazolo[3,2-a]pyrimidine-3-carboxamide]
Max %: 77.8%

CCNC(=O)c1c(C)sc2nc(Cc3cc(F)ccc3C)cc(=O)n12 [Example 21.36, N-ethyl-7-(5-fluoro-2-methylbenzyl)-2-methyl-5-oxo-5H-thiazolo[3,2-a]pyrimidine-3-carboxamide]
Max %: 71.8%

CCNC(=O)c1c(C)sc2nc(Cc3ccc(F)c(C#N)c3)cc(=O)n12 [Example 21.37, 7-(3-cyano-4-fluorobenzyl)-N-ethyl-2-methyl-5-oxo-5H-thiazolo[3,2-a]pyrimidine-3-carboxamide]
Max %: 68.4%

CCNC(=O)c1c(C)sc2nc(Cc3cccc4c3cnn4C)cc(=O)n12 [Example 21.38, N-ethyl-2-methyl-7-((1-methyl-1H-indazol-4-yl)methyl)-5-oxo-5H-thiazolo[3,2-a]pyrimidine-3-carboxamide]
Max %: 66.5%

CCNC(=O)c1c(C)sc2nc(Cc3cccc(NS(C)(=O)=O)c3)cc(=O)n12 [Example 21.39, N-ethyl-2-methyl-7-(3-(methylsulfonamido)benzyl)-5-oxo-5H-thiazolo[3,2-a]pyrimidine-3-carboxamide]
Max %: 62.6%

CCNC(=O)c1c(C)sc2nc(Cc3cc(C#N)ccc3C(F)(F)F)cc(=O)n12 [Example 21.40, 7-(5-cyano-2-(trifluoromethyl)benzyl)-N-ethyl-2-methyl-5-oxo-5H-thiazolo[3,2-a]pyrimidine-3-carboxamide]
Max %: 61.6%

CNC(=O)c1c(C)sc2nc(Cc3ccc(Cl)cc3C)cc(=O)n12 [Example 21.41, 7-(4-chloro-2-methylbenzyl)-N,2-dimethyl-5-oxo-5H-thiazolo[3,2-a]pyrimidine-3-carboxamide]
Max %: 59.7%

CCNC(=O)c1c(C)sc2nc(Cc3cc(F)ccc3F)cc(=O)n12 [Example 21.42, 7-(2,5-difluorobenzyl)-N-ethyl-2-methyl-5-oxo-5H-thiazolo[3,2-a]pyrimidine-3-carboxamide]
Max %: 54.5%
